# Data: patent US8193208B2 (Purdue Pharma L.P., priority 2005, dated 2012)
# Legend:
# Format in all cases: cell-based
# [1] = molecular target: T1, N-type calcium channel (NTCC) (Homo sapiens, UniProt Q00975); assay: FLIPR calcium mobilization assay for N-type calcium channel (differentiated IMR32 cells); parameters: differentiated IMR32 cells were treated with 1×; endogenous in cells; host or cells: IMR32 cells (ATCC), differentiated 8 days with dibutyryl cAMP and bromodeoxyuridine; conditions: calcium mobilization in vitro assay; N-type calcium channel block
# Procedure: Cell maintenance and differentiation. Unless noted otherwise, cell culture reagents were purchased from Mediatech of Herndon, Md. IMR32 cells (American Type Culture Collection, ATCC, Manassas, Va.) were routinely cultured in growth medium consisting of minimum essential medium containing 10% fetal bovine serum (FBS, Hyclone, Logan, Utah), 100 U/mL penicillin, 100 μg/mL streptomycin, 2 mM L-glutamine, 1 mM sodium pyruvate, and 1×MEM non-essential amino acids. 80-90% confluent flasks of cells were differentiated using the following differentiation medium: Growth medium plus 1 mM dibutyryl cyclic AMP (Sigma, St. Louis, Mo.), and 2.5 μM bromodeoxyuridine (Sigma). […]
# CellStripper, and seeded on poly-D-lysine-coated 96-well clear-bottom black plates (Becton Dickinson, Franklin Lakes, N.J.) at 200,000 cells/well. […] Plates were then transferred to a Fluorimetric Imaging Plate Reader (FLIPR^96, Molecular Devices, Inc., Sunnyvale, Calif.) for assay. The FLIPR measured basal Fluo-4 fluorescence for 315 seconds (i.e., 5 minutes and 15 seconds), then added 0.1 mL KCl agonist dissolved in IMR32 buffer and measured fluorescence for another 45 seconds. Final test compound concentrations on the cells after FLIPR read ranged from about 846 pM to about 17 μM, final nitrendipine concentration was 5 μM, and final KCl concentration was 90 mM. […]
# [2] = molecular target: T2, L-type calcium channel (LTCC) (Rattus norvegicus, UniProt P22002); assay: FLIPR calcium mobilization assay for L-type calcium channel (HEK293 cells expressing recombinant rat LTCC subunits, or alternatively differentiated A7r5 cells); conditions: calcium mobilization in vitro assay; L-type calcium channel block
# T2 construct: The 6.5 kb cDNA encoding the L-type calcium channel α1c subunit was cloned by PCR amplification from rat heart cDNA; expressed in transfected cells; host or cells: HEK293 (ATCC), stably transfected
# Procedure: A7r5 (ATCC) cells were maintained and routinely cultured in A7r5 growth medium consisting of Dulbecco's Modified Eagles Medium containing 10% FBS, 100 U/mL penicillin, 100 μg/mL streptomycin, 4 mM L-glutamine, and 0.15% sodium bicarbonate. 80-90% confluent flasks of cells were differentiated using the following differentiation medium: A7r5 Growth Medium plus 1 mM dibutyryl cyclic AMP (Sigma). Cells were differentiated for 8 days by replacing differentiation medium every 2-3 days.
# FLIPR Calcium Mobilization Assay for L-type Calcium Channel. One day prior to performing this assay, HEK293 cells stably expressing recombinant rat L-type calcium channel (LTCC) subunits (α1c, α2δ, and β1) are trypsinized, then seeded on poly-D-lysine-coated 96-well clear-bottom black plates (Becton Dickinson, Franklin Lakes, N.J.) at 75,000 cells/well. On the day of the assay, the plates are washed with LTCC wash buffer (127 mM NaCl, 2 mM MgCl2, 700 μM NaH2PO4, 5 mM CaCl2, 5 mM NaHCO3, 8 mM HEPES, 10 mM glucose, pH 7.4), then loaded with 0.1 mL of LTCC wash buffer containing Fluo-4 (3 μM final concentration, Molecular Probes, Eugene, Oreg.). After 1 hour, the cells are washed with 0.1 mL LTCC wash buffer and resuspended in 0.05 mL LTCC assay buffer (same composition as LTCC wash buffer). Plates are then transferred to a FLIPR^96 for assay. The FLIPR measures basal Fluo-4 fluorescence for 15 seconds, then adds 0.05 mL of each compound tested diluted in LTCC assay buffer at final concentrations ranging from about 846 pM to about 17 μM. Fluo-4 fluorescence is then measured for 5 minutes. 0.1 mL KCl agonist dissolved in LTCC assay buffer is then added to the cells to produce a final concentration of 90 mM KCl, and fluorescence is measured for another 45 seconds. Data are collected over the entire time course and analyzed using Excel, Graph Pad Prism, or an in-house regression analysis software.
# Alternative FLIPR Calcium Mobilization Assay for L-type Calcium Channel. Alternatively, the following cell line and procedure was used for the FLIPR calcium mobilization assay for L-type calcium channel. One day prior to performing this assay, differentiated A7r5 cells were trypsinized, then seeded on tissue culture treated 96-well clear-bottom black plates (Becton Dickinson, Franklin Lakes, N.J.) at a dilution of 1:1 from a confluent T150 cm^2 flask. On the day of the assay, the plates were washed with A7r5 wash buffer (127 mM NaCl, 2 mM MgCl2, 700 μM NaH2PO4, 5 mM CaCl2, 5 mM NaHCO3, 8 mM HEPES, 10 mM glucose, pH 7.4), then loaded with 0.1 mL of A7r5 wash buffer containing Fluo-4 (3 μM final concentration, Molecular Probes, Eugene, Oreg.). After 1 hour, the cells were washed with 0.1 mL A7r5 wash buffer and resuspended in 0.05 mL A7r5 assay buffer that was composed of A7r5 wash buffer plus 50 μM valinomycin (Sigma). Plates were then transferred to a FLIPR^96 for assay. The FLIPR measured basal Fluo-4 fluorescence for 15 seconds, then added 0.05 mL of each compound tested diluted in A7r5 assay buffer at final concentrations ranging from about 846 pM to about 17 μM. Fluo-4 fluorescence was then measured for 5 minutes. 0.1 mL KCl agonist dissolved in A7r5 assay buffer is then added to the cells to produce a final concentration of 90 mM KCl, and fluorescence was measured for another 45 seconds. Data were collected over the entire time course and analyzed using Excel, Graph Pad Prism, or an in-house regression analysis software.
# [3] = molecular target: T1, N-type calcium channel (NTCC); assay: FLIPR calcium mobilization assay for N-type calcium channel (differentiated IMR32 cells); parameters: endogenous in cells; host or cells: IMR32 cells (ATCC), differentiated 8 days with dibutyryl cAMP and bromodeoxyuridine; conditions: calcium mobilization in vitro assay; N-type calcium channel block
# Procedure: Cell maintenance and differentiation. Unless noted otherwise, cell culture reagents were purchased from Mediatech of Herndon, Md. IMR32 cells (American Type Culture Collection, ATCC, Manassas, Va.) were routinely cultured in growth medium consisting of minimum essential medium containing 10% fetal bovine serum (FBS, Hyclone, Logan, Utah), 100 U/mL penicillin, 100 μg/mL streptomycin, 2 mM L-glutamine, 1 mM sodium pyruvate, and 1×MEM non-essential amino acids. 80-90% confluent flasks of cells were differentiated using the following differentiation medium: Growth medium plus 1 mM dibutyryl cyclic AMP (Sigma, St. Louis, Mo.), and 2.5 μM bromodeoxyuridine (Sigma). Cells were differentiated for 8 days by replacing differentiation medium every 2-3 days.
# FLIPR Calcium Mobilization Assay for N-type Calcium Channel. One day prior to performing this assay, differentiated IMR32 cells were treated with 1×
# CellStripper, and seeded on poly-D-lysine-coated 96-well clear-bottom black plates (Becton Dickinson, Franklin Lakes, N.J.) at 200,000 cells/well. On the day of the assay, the cell plates were washed with IMR32 buffer (127 mM NaCl, 1 mM KCl, 2 mM MgCl2, 700 μM NaH2PO4, 5 mM CaCl2, 5 mM NaHCO3, 8 mM HEPES, 10 mM glucose, pH 7.4), then pre-stimulated with KCl and loaded as follows: 0.05 mL of IMR32 buffer, 0.05 mL of each compound tested diluted in IMR32 buffer containing 20 μM nitrendipine (Sigma), and 0.1 mL KCl dissolved in IMR32 buffer, plus Fluo-4 were added (3 μM final concentration, Molecular Probes, Eugene, Oreg.). Final test compound concentrations ranged from about 846 pM to about 17 μM, final nitrendipine concentration was 5 μM, and final KCl concentration was 90 mM. After 1 hour, the cells were washed twice with 0.05 mL of each compound tested in nitrendipine-containing IMR32 buffer (no KCl or Fluo-4), and then replaced with 0.1 mL of each compound tested in nitrendipine-containing IMR32 buffer. Plates were then transferred to a Fluorimetric Imaging Plate Reader (FLIPR^96, Molecular Devices, Inc., Sunnyvale, Calif.) for assay. The FLIPR measured basal Fluo-4 fluorescence for 315 seconds (i.e., 5 minutes and 15 seconds), then added 0.1 mL KCl agonist dissolved in IMR32 buffer and measured fluorescence for another 45 seconds. Final test compound concentrations on the cells after FLIPR read ranged from about 846 pM to about 17 μM, final nitrendipine concentration was 5 μM, and final KCl concentration was 90 mM. Data were collected over the entire time course and analyzed using Excel, Graph Pad Prism (version 3.02, Graph Pad, San Diego, Calif.), or an in-house non-linear regression analysis software.
# T1 sequence (Q00975 whole entry): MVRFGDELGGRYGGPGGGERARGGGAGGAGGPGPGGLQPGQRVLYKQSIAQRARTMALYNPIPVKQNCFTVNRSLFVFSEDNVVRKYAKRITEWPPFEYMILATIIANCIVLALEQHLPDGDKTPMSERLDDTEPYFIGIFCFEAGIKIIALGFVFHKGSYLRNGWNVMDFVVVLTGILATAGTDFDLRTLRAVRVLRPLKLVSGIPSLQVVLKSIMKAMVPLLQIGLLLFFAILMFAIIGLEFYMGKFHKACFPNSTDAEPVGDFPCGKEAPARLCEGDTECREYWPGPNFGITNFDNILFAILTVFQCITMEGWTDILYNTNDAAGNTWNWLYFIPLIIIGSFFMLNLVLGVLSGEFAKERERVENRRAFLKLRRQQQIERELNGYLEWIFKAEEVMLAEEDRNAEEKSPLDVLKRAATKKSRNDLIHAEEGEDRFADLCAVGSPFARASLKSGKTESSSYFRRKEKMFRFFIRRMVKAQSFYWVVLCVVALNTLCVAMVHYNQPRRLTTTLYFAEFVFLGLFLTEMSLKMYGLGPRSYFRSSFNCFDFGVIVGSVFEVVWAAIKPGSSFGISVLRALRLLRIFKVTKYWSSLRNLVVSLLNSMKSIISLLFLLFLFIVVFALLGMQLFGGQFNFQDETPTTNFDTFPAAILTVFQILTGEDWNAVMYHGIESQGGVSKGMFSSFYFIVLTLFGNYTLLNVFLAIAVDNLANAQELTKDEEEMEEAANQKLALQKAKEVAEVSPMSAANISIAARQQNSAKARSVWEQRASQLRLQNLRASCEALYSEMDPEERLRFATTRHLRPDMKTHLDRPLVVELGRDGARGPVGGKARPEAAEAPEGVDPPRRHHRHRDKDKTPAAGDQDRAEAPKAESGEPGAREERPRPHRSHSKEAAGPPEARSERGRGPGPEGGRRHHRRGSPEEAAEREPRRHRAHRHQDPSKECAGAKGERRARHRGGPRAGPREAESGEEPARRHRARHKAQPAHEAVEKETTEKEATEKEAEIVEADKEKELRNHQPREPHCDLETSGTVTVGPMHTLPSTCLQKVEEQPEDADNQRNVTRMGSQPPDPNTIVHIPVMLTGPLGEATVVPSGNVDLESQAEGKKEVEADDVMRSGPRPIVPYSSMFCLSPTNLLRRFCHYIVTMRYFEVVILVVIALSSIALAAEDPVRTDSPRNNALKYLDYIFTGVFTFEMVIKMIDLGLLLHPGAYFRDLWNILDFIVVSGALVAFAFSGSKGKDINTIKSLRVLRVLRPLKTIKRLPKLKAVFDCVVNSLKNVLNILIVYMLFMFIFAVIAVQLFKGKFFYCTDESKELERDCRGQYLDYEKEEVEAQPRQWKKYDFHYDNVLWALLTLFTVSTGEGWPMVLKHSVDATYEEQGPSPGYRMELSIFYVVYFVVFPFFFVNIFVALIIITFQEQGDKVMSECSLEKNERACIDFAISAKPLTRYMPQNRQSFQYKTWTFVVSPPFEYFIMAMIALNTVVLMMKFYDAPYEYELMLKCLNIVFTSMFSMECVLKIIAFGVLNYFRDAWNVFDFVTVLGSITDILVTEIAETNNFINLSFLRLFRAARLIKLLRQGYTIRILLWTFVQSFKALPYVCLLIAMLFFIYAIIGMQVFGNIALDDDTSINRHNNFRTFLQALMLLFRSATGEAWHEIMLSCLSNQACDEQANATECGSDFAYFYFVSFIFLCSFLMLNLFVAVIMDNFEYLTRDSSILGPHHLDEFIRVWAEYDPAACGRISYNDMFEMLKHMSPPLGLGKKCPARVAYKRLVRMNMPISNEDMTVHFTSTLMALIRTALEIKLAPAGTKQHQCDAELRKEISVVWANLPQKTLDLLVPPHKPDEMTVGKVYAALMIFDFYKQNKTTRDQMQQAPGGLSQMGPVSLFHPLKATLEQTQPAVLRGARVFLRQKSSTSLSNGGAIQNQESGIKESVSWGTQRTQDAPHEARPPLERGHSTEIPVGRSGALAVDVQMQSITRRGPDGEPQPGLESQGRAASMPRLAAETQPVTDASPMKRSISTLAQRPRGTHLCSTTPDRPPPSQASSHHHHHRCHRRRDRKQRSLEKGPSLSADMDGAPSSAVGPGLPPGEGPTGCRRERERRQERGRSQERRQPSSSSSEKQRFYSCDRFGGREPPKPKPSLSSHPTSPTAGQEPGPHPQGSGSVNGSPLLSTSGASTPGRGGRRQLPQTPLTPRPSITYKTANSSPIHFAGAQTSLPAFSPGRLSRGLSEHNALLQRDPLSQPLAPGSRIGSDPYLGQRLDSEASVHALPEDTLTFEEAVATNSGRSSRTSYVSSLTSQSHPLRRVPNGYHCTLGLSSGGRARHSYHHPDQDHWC
# T1 sequence (P54289 25-956 partner limits assumed): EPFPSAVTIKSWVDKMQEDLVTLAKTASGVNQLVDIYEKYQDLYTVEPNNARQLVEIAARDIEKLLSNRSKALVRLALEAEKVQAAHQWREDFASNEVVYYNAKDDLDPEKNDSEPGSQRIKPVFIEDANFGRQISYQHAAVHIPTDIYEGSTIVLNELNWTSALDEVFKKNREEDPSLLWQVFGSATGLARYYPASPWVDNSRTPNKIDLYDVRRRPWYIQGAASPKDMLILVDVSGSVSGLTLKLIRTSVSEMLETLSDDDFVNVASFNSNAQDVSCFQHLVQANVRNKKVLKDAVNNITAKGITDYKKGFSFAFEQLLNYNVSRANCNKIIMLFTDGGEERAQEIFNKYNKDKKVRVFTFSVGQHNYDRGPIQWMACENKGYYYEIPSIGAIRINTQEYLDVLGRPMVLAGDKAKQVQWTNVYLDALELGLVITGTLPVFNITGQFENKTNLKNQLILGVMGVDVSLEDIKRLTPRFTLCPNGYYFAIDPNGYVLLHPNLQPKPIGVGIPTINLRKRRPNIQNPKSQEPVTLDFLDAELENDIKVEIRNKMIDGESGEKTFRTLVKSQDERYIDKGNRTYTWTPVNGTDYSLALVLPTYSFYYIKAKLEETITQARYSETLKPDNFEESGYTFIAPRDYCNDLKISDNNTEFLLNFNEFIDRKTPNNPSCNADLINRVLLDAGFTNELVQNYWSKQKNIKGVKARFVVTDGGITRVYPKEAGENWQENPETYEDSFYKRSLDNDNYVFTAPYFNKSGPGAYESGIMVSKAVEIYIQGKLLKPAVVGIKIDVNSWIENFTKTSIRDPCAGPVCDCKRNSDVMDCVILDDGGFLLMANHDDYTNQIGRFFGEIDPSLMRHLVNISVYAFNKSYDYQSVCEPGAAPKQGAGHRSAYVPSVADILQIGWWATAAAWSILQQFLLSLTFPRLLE
# T1 sequence (P54289 957-1103 partner limits assumed): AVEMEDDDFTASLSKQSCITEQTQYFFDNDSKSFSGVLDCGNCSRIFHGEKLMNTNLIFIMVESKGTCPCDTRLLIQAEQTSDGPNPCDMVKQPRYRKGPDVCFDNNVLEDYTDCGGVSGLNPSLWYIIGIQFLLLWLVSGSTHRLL
# T1 sequence (Q02641 whole entry partner): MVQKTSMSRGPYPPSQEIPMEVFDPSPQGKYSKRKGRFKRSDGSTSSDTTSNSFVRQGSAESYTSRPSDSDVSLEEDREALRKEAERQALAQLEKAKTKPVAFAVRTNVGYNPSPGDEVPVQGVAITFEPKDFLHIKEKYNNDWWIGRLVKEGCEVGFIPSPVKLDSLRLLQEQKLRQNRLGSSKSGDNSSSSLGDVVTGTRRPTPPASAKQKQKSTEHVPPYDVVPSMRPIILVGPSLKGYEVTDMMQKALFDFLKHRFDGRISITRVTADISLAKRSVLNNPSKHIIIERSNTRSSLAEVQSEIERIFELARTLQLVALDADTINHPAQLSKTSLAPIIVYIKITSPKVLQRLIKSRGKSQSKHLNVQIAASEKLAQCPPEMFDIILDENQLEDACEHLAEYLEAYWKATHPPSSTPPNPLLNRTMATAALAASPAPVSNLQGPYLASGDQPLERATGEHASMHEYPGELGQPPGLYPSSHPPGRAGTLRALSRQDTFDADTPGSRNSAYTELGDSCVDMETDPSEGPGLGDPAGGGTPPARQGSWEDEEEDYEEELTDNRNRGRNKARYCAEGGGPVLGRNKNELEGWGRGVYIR
IC50 [1] [µM],Structure (SMILES),IC50 [2] [µM],IC50 [3] [µM]
10 to 20,CC(C)c1ccc(CN2CCC3(C=Cc4cccnc43)CC2)cc1,,
,"O=C(CCC(c1ccc(F)cc1)c1ccc(F)cc1)N1CCC2(CCc3ccccc32)CC1 [Compound 35, 1-[4,4-bis(4-fluorophenyl)butanoyl]-spiro[piperidine-4,1′-indane]]",> 20,4.92
,"COc1ccc(CN2CCC3(C=Cc4ccccc43)CC2)cc1 [Compound 37, 1-(4-methoxybenzyl)-spiro[piperidine-4,1′-indene]]",5.44,0.82
,"Fc1ccc(C(CCCN2CCC3(CC2)OCc2ccccc23)c2ccc(F)cc2)cc1 [Compound 42, 1,3-Dihydro-1′-[4,4-bis(4-fluorophenyl)butyl]-spiro[isobenzofuran-1,4′-piperidine]]",2.56,1.2
,"O=C1c2ccccc2C2(CCN(CCCC(c3ccc(F)cc3)c3ccc(F)cc3)CC2)N1Cc1ccccc1 [Compound 51, 2-Benzyl-2,3-dihydro-1′-[4,4-bis(4-fluorophenyl)butyl]-spiro[isoindole-1,4′-piperidine]-3-one]",6.39,0.55
,"O=C1Nc2ccccc2C12CCN(CCCC(c1ccc(F)cc1)c1ccc(F)cc1)CC2 [Compound 60, 2,3-Dihydro-1′-[4,4-bis(4-fluorophenyl)butyl]-spiro[indole-3,4′-piperidine]-2-one]",3.8,1.05
,"O=C1OC2(CCN(CCCN(c3ccc(F)cc3)c3ccc(F)cc3)CC2)c2ccccc21 [Compound 68, 1,3-Dihydro-1′-{3-[N,N-bis(4-fluorophenyl)amino]propyl}-spiro[isobenzofuran-1,4′-piperidine]-3-one]",> 20,0.23
